System: Streptavidin-R-phycoerythrin (SAPE)
Format: binding

Sequence: FTSSPSKHPQVEAGV [R441]
- SAPE binding median fluorescence vs unlabeled controls: comparable to the unlabeled controls

Reference: paper PMC4274986 (Journal of Molecular Recognition, 2014)
